One assay concerns ARPE-19 cells. Description: ARPE-19 cholesterol efflux. In kind it is cell-based, human. The note with it: ARPE-19, 20 μM peptide, 4 hours. As to the method:
Fully confluent 96-well plates of ARPE-19 cells were treated for 1 hour in serum-free DMEM containing 10 mM methyl-β-cyclodextrin, 100 μM cholesterol, and 25 μM BODIPY cholesterol. Cells were then washed and incubated overnight in serum-free DMEM containing 1 μM GW3965, 2 μg/mL ACAT inhibitor, and 0.2% BSA (LXR Agonist treated), or serum free DMEM containing 2 μg/mL ACAT inhibitor, and 0.2% BSA (Control). Cells were washed and incubated with 20 μM peptides diluted in serum-free Fluorobrite DMEM for 4 hours at 37° C. Media was transferred to a new 96-well plate and fresh serum-free Fluorobrite DMEM was placed on the cells. Media and cellular fluorescence were read on a Promega GloMax at 475 nm excitation, 500-550 emission. Fluorescence values were background corrected from no treatment conditions and percent efflux was calculated by the following equation: % efflux=(Media Fluorescence values)/(Media+Cell Fluorescence values). Data are presented as mean+SD over two runs per peptide.

Another assay deals with T1, ABCA1 (Homo sapiens, UniProt O95477).
T1 construct: endogenous in cells; host or cells: ARPE-19
Description: membrane ABCA1 stability testing in ARPE-19 cells treated with mCRP. Format: cell-based. The note with it: ARPE-19, mCRP, 20 μM peptide, 24 hours. As to the method:
ARPE-19 cells were seeded at 100,000 cells per well on 12-well plates and were allowed to grow to confluence. To prepare monomeric CRP (mCRP), recombinant CRP was prepared in a PBS solution containing 8 M Urea and 10 mM EDTA and incubated at 37° C. for 2 hours prior to desalting with a Zeba spin column (7K MW cutoff). mCRP was prepared to a 2× solution of 20 μg/mL. A 2× solution of 40 μM peptides was prepared in serum-free DMEM and serially diluted 1:2 over 4 concentrations. mCRP and peptides were added 1:1 to cells for 24 hours at 37° C. before isolating membrane protein and measuring membrane ABCA1 levels by western blot. Blots were quantified in ImageJ. Signals were further normalized to the LXR agonist treated group to determine percent (%) ABCA1 remaining. Treatment with LXR agonist increased membrane ABCA1 levels in this assay, but following treatment with mCRP, membrane ABCA1 levels were decreased.
FIGS. 35 and 36 show membrane ABCA1 stability testing using ARPE-19 cells. ARPE-19 cells were seeded at 100,000 cells per well on 12-well plates and were allowed to grow to confluence. To prepare monomeric CRP (mCRP), recombinant CRP was prepared in a PBS solution containing 8 M Urea and 10 mM EDTA and incubated at 37° C. for 2 hours prior to desalting with a Zeba spin column (7K MW cutoff). mCRP was prepared to a 2× solution of 20 μg/mL. A 2× solution of 40 μM peptides was prepared in serum-free DMEM. CRP and peptides were added 1:1 to cells for 24 hours at 37° C. before isolating membrane protein and measuring membrane ABCA1 levels by western blot. Blots were quantified in ImageJ. In FIG. 35, Signals were further normalized to the T-087 treated group to determine percent (%) ABCA1 levels compared to peptide T-087 treated cells. In FIG. 36, Signals were further normalized to the peptide T-101 treated group to determine percent (%) ABCA1 levels compared to peptide T-101 treated cells.

The next assay has as its target LDLR (Homo sapiens, UniProt P01130). Put plainly: LDLR binding (SPR), high surfactant preparation. As to the method:
The table shown in FIG. 23 illustrates LDLR binding data (SPR), using a high surfactant preparation. Recombinant LDLR was diluted in 10 mM acetate buffer pH 4.5 and amine coupled to a CM5 chip at 1000 RU. Peptides were diluted to 5 μM in running buffer (HBS-P+, 1 mM CaCl2) and serially diluted 1:3 for 5 total concentrations. Peptides were exposed to immobilized LDLR at a rate of […] for 120 seconds. Between cycles, the chip surface was regenerated with 3 injections of 50 mM NaOH/100 mM EDTA. Multi-Cycle Kinetics was performed on a Biacore Insight Evaluation Software and binding kinetics were analyzed with a 1:1 binding model.

Setting [1] is: high surfactant preparation (HBS-P+), 1:1 binding model, read-out: binding KD to LDLR.

Read-outs that look alike come from different tables or passages of the source. Ends that are not written are not given here. Peptide text beside a SMILES is read from it.

T1 sequence (O95477 whole entry): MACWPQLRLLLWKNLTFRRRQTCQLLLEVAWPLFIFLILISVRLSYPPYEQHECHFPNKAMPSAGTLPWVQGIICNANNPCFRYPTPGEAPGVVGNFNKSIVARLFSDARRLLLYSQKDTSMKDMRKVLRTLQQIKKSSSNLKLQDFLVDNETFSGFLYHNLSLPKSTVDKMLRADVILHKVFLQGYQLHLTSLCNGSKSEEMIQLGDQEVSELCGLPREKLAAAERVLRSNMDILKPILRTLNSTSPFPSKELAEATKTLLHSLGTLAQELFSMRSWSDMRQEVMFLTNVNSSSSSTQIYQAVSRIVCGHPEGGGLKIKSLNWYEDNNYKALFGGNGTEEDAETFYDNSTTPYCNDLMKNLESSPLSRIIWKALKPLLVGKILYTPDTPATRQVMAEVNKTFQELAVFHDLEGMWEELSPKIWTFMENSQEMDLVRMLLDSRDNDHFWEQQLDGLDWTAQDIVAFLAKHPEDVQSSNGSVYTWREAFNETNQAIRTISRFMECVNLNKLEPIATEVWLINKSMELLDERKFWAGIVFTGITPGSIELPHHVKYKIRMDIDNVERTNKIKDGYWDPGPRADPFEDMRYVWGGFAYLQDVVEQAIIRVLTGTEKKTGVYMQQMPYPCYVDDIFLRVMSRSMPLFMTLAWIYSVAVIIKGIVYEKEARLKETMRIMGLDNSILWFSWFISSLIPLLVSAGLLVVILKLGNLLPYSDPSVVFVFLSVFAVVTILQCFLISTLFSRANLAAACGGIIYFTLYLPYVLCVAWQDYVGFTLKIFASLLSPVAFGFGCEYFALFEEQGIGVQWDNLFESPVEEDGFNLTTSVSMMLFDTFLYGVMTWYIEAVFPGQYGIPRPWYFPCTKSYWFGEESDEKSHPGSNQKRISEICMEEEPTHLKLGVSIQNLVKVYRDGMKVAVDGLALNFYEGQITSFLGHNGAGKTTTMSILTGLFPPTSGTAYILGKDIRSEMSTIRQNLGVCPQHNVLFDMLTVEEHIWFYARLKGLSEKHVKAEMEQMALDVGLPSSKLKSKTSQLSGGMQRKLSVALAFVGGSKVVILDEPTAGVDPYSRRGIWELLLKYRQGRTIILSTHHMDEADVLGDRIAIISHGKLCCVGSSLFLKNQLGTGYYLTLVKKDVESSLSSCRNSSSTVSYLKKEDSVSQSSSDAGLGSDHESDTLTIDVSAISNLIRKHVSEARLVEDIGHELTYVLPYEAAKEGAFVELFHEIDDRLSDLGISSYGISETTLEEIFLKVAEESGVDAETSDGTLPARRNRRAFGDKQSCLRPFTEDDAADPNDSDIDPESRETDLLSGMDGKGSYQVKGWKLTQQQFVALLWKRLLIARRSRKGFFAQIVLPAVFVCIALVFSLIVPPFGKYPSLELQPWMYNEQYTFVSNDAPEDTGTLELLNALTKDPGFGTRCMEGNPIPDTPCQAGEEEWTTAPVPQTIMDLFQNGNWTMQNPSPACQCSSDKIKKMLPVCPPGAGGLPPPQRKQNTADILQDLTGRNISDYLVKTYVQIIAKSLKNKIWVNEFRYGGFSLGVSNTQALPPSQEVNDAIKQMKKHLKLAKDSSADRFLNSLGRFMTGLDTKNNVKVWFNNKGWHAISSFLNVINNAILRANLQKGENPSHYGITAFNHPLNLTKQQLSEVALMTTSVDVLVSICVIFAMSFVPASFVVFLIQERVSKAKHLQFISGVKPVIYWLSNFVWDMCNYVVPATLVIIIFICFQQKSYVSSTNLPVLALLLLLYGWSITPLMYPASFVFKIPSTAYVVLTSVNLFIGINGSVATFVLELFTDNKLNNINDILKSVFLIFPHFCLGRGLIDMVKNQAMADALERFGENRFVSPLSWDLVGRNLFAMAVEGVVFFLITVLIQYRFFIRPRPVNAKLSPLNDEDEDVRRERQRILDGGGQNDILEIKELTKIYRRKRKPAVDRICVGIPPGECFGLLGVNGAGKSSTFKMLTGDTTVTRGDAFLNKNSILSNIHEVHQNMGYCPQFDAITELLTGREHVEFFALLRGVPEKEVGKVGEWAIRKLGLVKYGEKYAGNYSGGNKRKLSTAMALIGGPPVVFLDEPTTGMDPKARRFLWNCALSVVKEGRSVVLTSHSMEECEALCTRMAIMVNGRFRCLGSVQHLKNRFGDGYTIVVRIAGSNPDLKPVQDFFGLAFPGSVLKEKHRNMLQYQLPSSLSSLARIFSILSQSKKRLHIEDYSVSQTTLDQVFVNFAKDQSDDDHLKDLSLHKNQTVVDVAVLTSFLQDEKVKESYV
Sequence of LDLR (P01130 22-860): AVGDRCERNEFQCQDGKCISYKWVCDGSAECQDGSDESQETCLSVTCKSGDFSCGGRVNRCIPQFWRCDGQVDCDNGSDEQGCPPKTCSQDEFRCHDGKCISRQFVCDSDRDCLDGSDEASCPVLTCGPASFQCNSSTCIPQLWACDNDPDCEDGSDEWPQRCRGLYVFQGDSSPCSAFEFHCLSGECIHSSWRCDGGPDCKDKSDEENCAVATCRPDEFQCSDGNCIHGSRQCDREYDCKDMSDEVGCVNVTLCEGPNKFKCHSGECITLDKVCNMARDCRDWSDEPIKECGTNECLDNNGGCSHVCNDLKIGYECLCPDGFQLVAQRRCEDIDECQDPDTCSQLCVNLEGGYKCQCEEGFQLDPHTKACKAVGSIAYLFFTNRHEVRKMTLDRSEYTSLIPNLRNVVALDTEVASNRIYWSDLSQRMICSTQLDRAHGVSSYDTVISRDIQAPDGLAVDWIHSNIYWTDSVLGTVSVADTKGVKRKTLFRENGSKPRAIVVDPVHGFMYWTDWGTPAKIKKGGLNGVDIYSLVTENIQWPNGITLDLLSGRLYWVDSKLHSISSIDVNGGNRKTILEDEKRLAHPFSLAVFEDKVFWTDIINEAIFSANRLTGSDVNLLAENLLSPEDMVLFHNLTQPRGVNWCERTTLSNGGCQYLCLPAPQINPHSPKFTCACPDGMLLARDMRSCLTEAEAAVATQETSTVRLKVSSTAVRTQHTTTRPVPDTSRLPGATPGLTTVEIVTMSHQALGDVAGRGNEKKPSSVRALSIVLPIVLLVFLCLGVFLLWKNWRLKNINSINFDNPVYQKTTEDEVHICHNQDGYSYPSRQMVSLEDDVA

Take “T-154: variant of peptide T-087 (DGWERFRALFKELADYFR)”: the “cholesterol efflux following LXR agonist treatment” value with ARPE-19 cells is listed as “increased cholesterol efflux”.

For “T-174: variant of peptide T-087 (DAWAAARALFKELADYFR)”, in the assay on ARPE-19 cells, the “cholesterol efflux following LXR agonist treatment” value is “increased cholesterol efflux”. Still for that read-out and setting: with “T-178: variant of peptide T-087 (DAWERFRALFKELADAAA)” the entry was “increased cholesterol efflux”. For the compound “T-153: variant of peptide T-087 (DPWERFRALFKELADYFR)”, the “cholesterol efflux following LXR agonist treatment” value in the assay on ARPE-19 cells is listed as “increased cholesterol efflux”. The same measure, in the same setting: as for “T-168: variant of peptide T-087 (DAWERFRALFKELGDYFR)”, the entry is “increased cholesterol efflux”.

“T-162: variant of peptide T-087 (DAWERFRAAFKELADYFR)”: the “membrane ABCA1 levels compared to peptide T-087 treated cells” value with ABCA1 is recorded as “reduction of membrane ABCA1 levels”. Further, the “cholesterol efflux following LXR agonist treatment” value in the assay with ARPE-19 cells is “increased cholesterol efflux”. On the same counts, the results for “T-158: variant of peptide T-087 (DAWERARALFKELADYFR)” are “reduction of membrane ABCA1 levels” and “increased cholesterol efflux”. In the same order, the values of “T-159: variant of peptide T-087 (DAWERFAALFKELADYFR)” are “reduction of membrane ABCA1 levels” and “increased cholesterol efflux”. In the same order, the values of “T-156: variant of peptide T-087 (DAWARFRALFKELADYFR)” are “reduction of membrane ABCA1 levels” and “increased cholesterol efflux”. With “T-157: variant of peptide T-087 (DAWEAFRALFKELADYFR)”, in the assay with ABCA1, the “membrane ABCA1 levels compared to peptide T-087 treated cells” value is recorded as “reduction of membrane ABCA1 levels”. Besides, the “cholesterol efflux following LXR agonist treatment” value in the assay on ARPE-19 cells is recorded as “increased cholesterol efflux”.

On to “T-166: variant of peptide T-087 (DAWERFRALFKEAADYFR)”, for which the “membrane ABCA1 levels compared to peptide T-087 treated cells” value in the assay with ABCA1 was “reduction of membrane ABCA1 levels”. For the same compound, the “cholesterol efflux following LXR agonist treatment” value with ARPE-19 cells is listed as “increased cholesterol efflux”. Regarding “T-175: variant of peptide T-087 (DAWERFAAAFKELADYFR)”, the “cholesterol efflux following LXR agonist treatment” value in the assay with ARPE-19 cells was “increased cholesterol efflux”. For “T-170: variant of peptide T-087 (DAWERFRALFKELADAFR)”, the “membrane ABCA1 levels compared to peptide T-087 treated cells” value in the assay with ABCA1 is “reduction of membrane ABCA1 levels”. Moreover, the “cholesterol efflux following LXR agonist treatment” value with ARPE-19 cells is recorded as “increased cholesterol efflux”. “T-176: variant of peptide T-087 (DAWERFRALAAALADYFR)”: the “cholesterol efflux following LXR agonist treatment” value in the assay on ARPE-19 cells is recorded as “increased cholesterol efflux”. Turning to “T-167: variant of peptide T-087 (DAWERFRALFKELPDYFR)”, the “membrane ABCA1 levels compared to peptide T-087 treated cells” value with ABCA1 is “reduction of membrane ABCA1 levels”. In addition, in the assay with ARPE-19 cells, the “cholesterol efflux following LXR agonist treatment” value was “increased cholesterol efflux”. “T-164: variant of peptide T-087 (DAWERFRALFAELADYFR)”: the “cholesterol efflux following LXR agonist treatment” value in the assay on ARPE-19 cells is “increased cholesterol efflux”. Usually Kd stands for the free concentration of one partner at which half of the binding sites on the other are occupied at equilibrium, for simple one-to-one binding. For the compound `CC(C)C[C@H](NC(=O)[C@H](CCCNC(=N)N)NC(=O)[C@H](CCCCN)NC(=O)[C@H](CCC(N)=O)NC(=O)[C@H](CC(C)C)NC(=O)[C@H](CC(=O)O)NC(=O)[C@H](CC(=O)O)NC(=O)[C@H](C)NC(=O)[C@H](CC(=O)O)NC(=O)[C@H](CCCNC(=N)N)NC(=O)[C@H](CC(C)C)NC(=O)[C@H](CC(C)C)NC(=O)[C@H](CCCNC(=N)N)NC(=O)[C@H](CCCCN)NC(=O)[C@H](CCCNC(=N)N)NC(=O)[C@H](CC(C)C)NC(=O)[C@H](CCCCN)NC(=O)[C@H](CCCNC(=N)N)NC(=O)[C@H](CC(C)C)NC(=O)[C@@H](N)Cc1c[nH]cn1)C(=O)N[C@@H](C)C(=O)N[C@@H](CCC(=O)O)C(=O)N[C@@H](Cc1ccc(O)cc1)C(=O)N[C@@H](CCC(N)=O)C(=O)N[C@@H](C)C(=O)N[C@@H](CCCNC(=N)N)C(=O)N[C@@H](C)C(=O)N[C@@H](CCCCN)C(=O)N[C@@H](CCC(=O)O)C(=O)N[C@@H](C)C(=O)N[C@@H](Cc1ccccc1)C(=O)N[C@@H](CC(=O)O)C(=O)N[C@@H](CCCNC(=N)N)C(=O)O` [T-064] (H-HLRKLRKRLLRDADDLQKRLAEYQARAKEAFDR-OH), the Kd on LDLR (setting [1]) is less than 10 µM.

On to “WKDFGERVERALREQFEDLGQSTEELRVRLASHLRKLRKRLLRDADDLQKRLAVYQA [T-113]”, for which the Kd at LDLR is less than 10 µM. As for “T-155: variant of peptide T-087 (DAAERFRALFKELADYFR)”, the “membrane ABCA1 levels compared to peptide T-087 treated cells” value in the assay with ABCA1 is listed as “reduction of membrane ABCA1 levels”. For the same compound, the “cholesterol efflux following LXR agonist treatment” value in the assay with ARPE-19 cells is reported as “increased cholesterol efflux”. Turning to `CC(C)C[C@H](NC(=O)[C@H](CCCNC(=N)N)NC(=O)[C@H](CCCCN)NC(=O)[C@H](CCC(N)=O)NC(=O)[C@H](CC(C)C)NC(=O)[C@H](CC(=O)O)NC(=O)[C@H](CC(=O)O)NC(=O)[C@H](C)NC(=O)[C@H](CC(=O)O)NC(=O)[C@H](CCCNC(=N)N)NC(=O)[C@H](CC(C)C)NC(=O)[C@H](CC(C)C)NC(=O)[C@H](CCCNC(=N)N)NC(=O)[C@H](CCCCN)NC(=O)[C@H](CCCNC(=N)N)NC(=O)[C@H](CC(C)C)NC(=O)[C@H](CCCCN)NC(=O)[C@H](CCCNC(=N)N)NC(=O)[C@H](CC(C)C)NC(=O)[C@H](Cc1c[nH]cn1)NC(=O)[C@H](CO)NC(=O)[C@H](C)NC(=O)[C@@H](N)CC(C)C)C(=O)N[C@@H](C)C(=O)N[C@H](C(=O)N[C@@H](Cc1ccc(O)cc1)C(=O)N[C@@H](CCC(N)=O)C(=O)N[C@@H](C)C(=O)NCC(=O)N[C@@H](C)C(=O)N[C@@H](CCCNC(=N)N)C(=O)N[C@@H](CCC(=O)O)C(=O)NCC(=O)N[C@@H](C)C(=O)N[C@@H](CCC(=O)O)C(=O)N[C@@H](CCCNC(=N)N)C(=O)O)C(C)C` [T-046], on LDLR (setting [1]), the Kd was less than 10 µM. With “T-171: variant of peptide T-087 (DAWERFRALFKELADYAR)”, the “cholesterol efflux following LXR agonist treatment” value with ARPE-19 cells was “increased cholesterol efflux”.
